The values that follow come from the PolyMetriX glass transition set.

In the case of `*C(=O)OCCCCCCOC(=O)c1ccc(N2C(=O)c3ccc(*)cc3C2=O)cc1` (repeat unit), the glass transition temperature is 80.50 °C. The compound `*C(=O)OCCCCCOC(=O)c1ccc(N2C(=O)c3ccc(*)cc3C2=O)cc1` (repeat unit) returned a glass transition temperature of 90.00 °C. Under `*C(=O)OCCN(CCOC(=O)c1ccc2c(c1)C(=O)N(c1cccc(N3C(=O)c4ccc(*)cc4C3=O)c1)C2=O)c1ccc(/N=N/c2ccc(F)cc2)cc1` (repeat unit) stands 168.00 °C; under `*C(=O)OCCOC(=O)c1ccc(*)o1` (repeat unit), 89.0 °C; under `*C(=O)OCCOC(=O)c1ccc(N2C(=O)c3ccc(*)cc3C2=O)cc1` (repeat unit), 280.00 °C. Under `*C(=O)OCCOCCOC(=O)c1ccc(N2C(=O)c3ccc(*)cc3C2=O)cc1` (repeat unit) stands 101.00 °C; under `*C(=O)OCCOCCOCCOC(=O)c1ccc(N2C(=O)c3ccc(*)cc3C2=O)cc1` (repeat unit), 63.00 °C. Under `*CC#CC#CCOc1ccc(C(=O)OCCN(CCOC(=O)c2ccc(O*)cc2)c2ccc([N+](=O)[O-])cc2)cc1` (repeat unit) stands 100.00 °C.

`*CCCCCCOC(=O)C(C(=O)OCCCCCCOc1ccc(-n2on2-c2ccc(O*)cc2)cc1)c1ccccc1` (repeat unit): the glass transition temperature turned out to be 23.00 °C. Under `*CCCCCCOC(=O)C(CCCCCOc1ccc(/N=N/c2ccncc2)cc1)C(=O)OCCCCCCOc1ccc(-c2ccc(O*)cc2)cc1` (repeat unit) stands 53.60 °C; under `*CCCCCCOC(=O)C(CCCCCP(=O)(O)O)C(=O)OCCCCCCOc1ccc(-n2on2-c2ccc(O*)cc2)cc1` (repeat unit), 17.00 °C. The compound `*CCCCCCOC(=O)O*` (repeat unit) yielded a glass transition temperature of -42.00 °C. Under `*CCCCCCOC(=O)OCCCCCCOC(=O)OCCCCCCOc1ccc(C(=O)c2ccc(O*)cc2)cc1` (repeat unit) stands -0.30 °C. Next, `*CCCCCCOC(=O)OCCCCCCOC(=O)OCCCCCCn1c(=O)c2cc3c(=O)n(*)c(=O)c3cc2c1=O` (repeat unit): 17.00 °C. Take `*CCCCCCOC(=O)OCCCCOC(=O)OCCCCCCOc1ccc(C(=O)c2ccc(O*)cc2)cc1` (repeat unit): the glass transition temperature came to 2.10 °C. Next, `*CCCCCCOC(=O)OCCCOC(=O)OCCCCCCOc1ccc(C(=O)c2ccc(O*)cc2)cc1` (repeat unit): 16.00 °C; `*CCCCCCOC(=O)OCCOC(=O)OCCCCCCOc1ccc(C(=O)c2ccc(O*)cc2)cc1` (repeat unit): 15.00 °C; `*CCCCCCOC(=O)OCCOC(=O)OCCCCCCOc1ccc(Oc2ccc(O*)cc2)cc1` (repeat unit): -4.00 °C. Under `*CCCCCCOC(=O)c1ccc(-c2ccc(C(=O)O*)cc2)cc1` (repeat unit) stands 51.00 °C.

`*CCCCCCOC(=O)c1ccc2cc(C(=O)O*)ccc2c1` (repeat unit): the glass transition temperature amounted to 64.00 °C. Under `*CCCCCCOc1ccc(-c2ccc(O*)c3ccccc23)c2ccccc12` (repeat unit) stands 109.00 °C; under `*CCCCCCOc1ccc(/C=C/c2ccc(O*)c3ccccc23)cc1` (repeat unit), 78.00 °C. Next, `*CCCCCCOc1ccc(CCc2ccc(O*)cc2C)cc1` (repeat unit): 17.90 °C.

Turning to `*CCCCOC(=O)OCCCCCCOC(=O)OCCCCn1c(=O)c2cc3c(=O)n(*)c(=O)c3cc2c1=O` (repeat unit), the glass transition temperature was determined as 37.00 °C.

`*CCCCOC(=O)c1ccc(N/C=N/c2ccc(C(=O)O*)cc2)cc1` (repeat unit): the glass transition temperature worked out at 91.00 °C.

The compound `*CCCCOC(=O)c1ccc2cc(C(=O)O*)ccc2c1` (repeat unit) registered a glass transition temperature of 66.00 °C. Next, `*CCCCOc1ccc(C(=O)OCCOC(=O)c2ccc(O*)cc2)cc1` (repeat unit): 53.00 °C; `*CCCOC(=O)C(C)O*` (repeat unit): -33.00 °C. Under `*CCCOC(=O)OCCCCCCOC(=O)OCCCn1c(=O)c2cc3c(=O)n(*)c(=O)c3cc2c1=O` (repeat unit) stands 36.00 °C. Under `*CCCOc1ccc(OCCCc2nnc(-c3ccc(-c4nnc(*)o4)cc3)o2)c(C)c1` (repeat unit) stands 112.00 °C; under `*CCN(CCOC(=O)OCc1ccc(COC(=O)O*)cc1)c1ccc(/N=N/c2ccc([N+](=O)[O-])cc2)cc1` (repeat unit), 138.80 °C; under `*CCN(CCOC(=O)c1cc(OCCC2CCN(c3ccc(S(=O)(=O)C(F)(F)C(F)(F)C(F)(F)C(F)(F)C(F)(F)C(F)(F)C(F)(F)C(F)(F)F)cc3)CC2)cc(C(=O)O*)c1)c1ccc(S(=O)(=O)C(F)(F)C(F)(F)C(F)(F)C(F)(F)C(F)(F)C(F)(F)C(F)(F)C(F)(F)F)cc1` (repeat unit), 86.00 °C. `*CCN(CCOC(=O)c1ccc(C(=O)O*)cc1)c1ccc(-c2nc3ccc([N+](=O)[O-])cc3o2)cc1` (repeat unit) gave a glass transition temperature of 208.00 °C.

In turn, `*CCOC(=O)c1ccc(O*)cc1` (repeat unit) gave a glass transition temperature of 84.00 °C. Under `*CCOCCOC(=O)O*` (repeat unit) stands -27.00 °C. As for `*CCOCCOC(=O)c1ccccc1-c1ccccc1C(=O)O*` (repeat unit), the glass transition temperature came to 17.00 °C. Next, `*CCOCCOCCOC(=O)c1ccc(-c2ccc(-c3ccc(C(=O)O*)cc3)cc2)cc1` (repeat unit): 50.00 °C. Under `*CCOCCOCCOC(=O)c1ccc(-c2ccc(C(=O)O*)cc2)cc1` (repeat unit) stands 20.00 °C; under `*CCOCCOCCOCCOC(=O)c1ccc(-c2ccc(-c3ccc(C(=O)O*)cc3)cc2)cc1` (repeat unit), 40.00 °C; under `*CCOCCOCCOCCOCCOCCOC(=O)c1cccc(C(=O)O*)c1` (repeat unit), -23.50 °C. In turn, `*CCOCCOCCOCCOCCOCCOCCOCCOCCOCCOC(=O)c1ccc(-c2ccc(-c3ccc(C(=O)O*)cc3)cc2)cc1` (repeat unit) returned a glass transition temperature of 40.00 °C. Next, `*CCOCCOc1ccc(N/C=N/c2ccc(O*)cc2)cc1` (repeat unit): 62.00 °C; `*CCOc1ccc(/C=C2\CC/C(=C\c3ccc(OCCOP(=O)(O*)OCC)c(OC)c3)C2=O)cc1OC` (repeat unit): 80.00 °C. Next, `*CCOc1ccc(C2(c3ccc(OCCO[Si](O*)(c4ccccc4)c4ccccc4)cc3)c3ccccc3-c3ccccc32)cc1` (repeat unit): 97.00 °C; `*CCOc1ccc(S(=O)(=O)c2ccc(OCCOP(=O)(O*)Oc3ccc(C)cc3)cc2)cc1` (repeat unit): 46.00 °C; `*CCOc1ccc(S(=O)(=O)c2ccc(OCCOP(=O)(O*)Oc3ccccc3)cc2)cc1` (repeat unit): 49.00 °C.

The compound `*Cc1ccc(COC(=O)c2cccc(C(=O)O*)c2)cc1` (repeat unit) displayed a glass transition temperature of 143.00 °C. Next, `*OC(=O)OCCOCCOCCOC(=O)OC1COC2C(*)COC12` (repeat unit): 17.00 °C. As for `*OCCOC(=O)CCCC(=O)OCCOc1nc(-c2ccc(OCCCC)cc2)nc(*)c1-c1ccc(OC)cc1` (repeat unit), the glass transition temperature was 46.00 °C. Turning to `*OCCOC(=O)CCCCC(=O)OCCOc1nc(-c2ccc(OCCCC)cc2)nc(*)c1-c1ccc(OC)cc1` (repeat unit), the glass transition temperature was 34.00 °C. With `*OCCOC(=O)c1ccc(C(=O)OCCOc2nc(-c3ccc(OCCCC)cc3)nc(*)c2-c2ccc(OC)cc2)cc1` (repeat unit), the glass transition temperature came out at 94.00 °C. Next, `*OCCOC(=O)c1cccc(C(=O)OCCOc2nc(-c3ccc(OCCCC)cc3)nc(*)c2-c2ccc(OC)cc2)c1` (repeat unit): 92.00 °C; `*O[SiH](*)C` (repeat unit): -3.39 °C.

On to `*O[Si](C)(C)c1ccc([Si](C)(C)O[SiH](*)CCC(F)(F)F)cc1` (repeat unit), for which the glass transition temperature is -37.00 °C. For the compound `*Oc1ccc(-c2ccc(Oc3ccc(C(=O)c4ccc(C(=O)c5ccc(*)c(C(F)(F)F)c5)cc4)cc3C(F)(F)F)cc2)cc1` (repeat unit), the glass transition temperature amounted to 187.00 °C.

`*Oc1ccc(/C=N/N=C/c2ccc(Oc3ccc(C(=O)c4ccc(*)cc4)cc3)cc2)cc1` (repeat unit) yielded a glass transition temperature of 179.00 °C. Next, `*Oc1ccc(C(=O)OCCCCCCOC(=O)c2ccc(*)cc2)cc1` (repeat unit): 15.00 °C; `*Oc1cccc(N(c2ccccc2)c2ccc(-c3ccc(N(c4ccc(/N=N/c5ccc([N+](=O)[O-])cc5)cc4)c4cccc(OC(=O)OCCOCCOC(*)=O)c4)cc3)cc2)c1` (repeat unit): 111.00 °C; `*Oc1cccc(N(c2ccccc2)c2ccc(-c3ccc(N(c4ccccc4)c4cccc(OC(=O)OCCOCCOC(*)=O)c4)cc3)cc2)c1` (repeat unit): 113.00 °C. Next, `*c1ccc(Oc2ccc(C(=O)c3ccc(Cc4ccc(C(=O)c5ccc(Oc6ccc(-c7nc(-c8ccccc8)[nH]c7*)cc6)cc5)cc4)cc3)cc2)cc1` (repeat unit): 231.00 °C; `*c1ccc(Oc2ccc(C(=O)c3ccc(Oc4ccc(-c5nc(-c6ccc(-c7nc(*)c(-c8ccccc8)[nH]7)cc6)[nH]c5-c5ccccc5)cc4)cc3)cc2)cc1` (repeat unit): 276.00 °C. Under `*c1ccc(Oc2ccc(C(=O)c3ccc(Oc4ccc(-c5nnc(*)c6c(-c7ccc(F)cc7)c(-c7ccc(F)cc7)c(-c7ccc(F)cc7)c(-c7ccc(F)cc7)c56)cc4)cc3)cc2)cc1` (repeat unit) stands 313.00 °C. `*c1ccc(Oc2ccc(C(=O)c3ccc(Oc4ccc(C(=O)c5ccc(Oc6ccc(-c7nc(-c8ccccc8)[nH]c7*)cc6)cc5)cc4)cc3)cc2)cc1` (repeat unit) yielded a glass transition temperature of 230.00 °C.
